Consider 35 compounds from patent US7781591B2, “Substituted 3-cyanopyridines as protein kinase inhibitors” (Wyeth LLC, priority 2006, dated 2010).

pIC50: −log10 of the molar value. Like-named read-outs stand apart in the source and are kept apart here.

For the assay, the target named is T1, human PKCθ full length enzyme (Homo sapiens, UniProt Q04759).
T1 construct: human PKCθ full length enzyme (Panvera Cat# P2996); purchased Panvera P2996
Nature of the assay: PKCθ IMAP assay (fluorescence polarization). Type of assay: biochemical. On the technique in general: In fluorescence polarisation assays a small probe gives low polarisation when free and higher when bound to something large.

The mark [1] stands for this setting: human PKCθ full length enzyme, IMAP, average value, read-out: IC50 PKCθ IMAP.

T1 sequence (Q04759 whole entry): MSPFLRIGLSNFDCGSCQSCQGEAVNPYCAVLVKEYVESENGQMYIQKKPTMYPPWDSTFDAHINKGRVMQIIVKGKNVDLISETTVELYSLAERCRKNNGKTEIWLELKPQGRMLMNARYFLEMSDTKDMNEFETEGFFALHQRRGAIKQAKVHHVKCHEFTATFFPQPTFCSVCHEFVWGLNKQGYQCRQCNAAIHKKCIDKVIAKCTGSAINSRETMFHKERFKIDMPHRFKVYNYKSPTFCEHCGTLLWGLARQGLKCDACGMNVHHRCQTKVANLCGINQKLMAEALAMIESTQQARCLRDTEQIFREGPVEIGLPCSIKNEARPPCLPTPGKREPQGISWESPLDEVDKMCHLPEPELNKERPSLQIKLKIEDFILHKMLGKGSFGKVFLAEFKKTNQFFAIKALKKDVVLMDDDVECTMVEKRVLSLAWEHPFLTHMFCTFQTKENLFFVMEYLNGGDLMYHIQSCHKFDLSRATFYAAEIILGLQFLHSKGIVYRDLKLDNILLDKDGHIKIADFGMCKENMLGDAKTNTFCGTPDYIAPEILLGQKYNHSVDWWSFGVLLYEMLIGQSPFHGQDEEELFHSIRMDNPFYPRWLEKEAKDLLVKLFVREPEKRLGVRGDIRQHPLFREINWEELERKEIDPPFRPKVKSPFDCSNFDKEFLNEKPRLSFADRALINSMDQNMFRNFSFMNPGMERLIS

The term pIC50 denotes the IC50 on a negative log10 scale, so that one unit is a factor of ten. On to `CCOCCNCCOc1ccc(-c2cncc(C#N)c2Nc2ccc3[nH]ccc3c2C)cc1` [Compound 416, 5-(4-{2-[(2-ethoxyethyl)amino]ethoxy}phenyl)-4-[(4-methyl-1H-indol-5-yl)amino]nicotinonitrile], for which the pIC50 under setting [1] is 8.22.
As for `Cc1c(Nc2c(C#N)cncc2-c2ccc(OCCNCCN(C)C)cc2)ccc2[nH]ccc12` [Compound 417, 5-[4-(2-{[2-(dimethylamino)ethyl]amino}ethoxy)phenyl]-4-[(4-methyl-1H-indol-5-yl)amino]nicotinonitrile], the pIC50 was 8.22.
Take `Cc1c(Nc2c(C#N)cncc2-c2ccc(OCCN3CCCC3)cc2)ccc2[nH]ccc12` [Compound 418, 4-[(4-methyl-1H-indol-5-yl)amino]-5-[4-(2-pyrrolidin-1-ylethoxy)phenyl]nicotinonitrile]: the negative-log IC50 (pIC50) under setting [1] was 8.40.
The same measure, in the same setting: the same measure for `Cc1c(Nc2c(C#N)cncc2-c2ccc(OCCNCc3ccccc3)cc2)ccc2[nH]ccc12` [Compound 419, 5-{4-[2-(benzylamino)ethoxy]phenyl}-4-[(4-methyl-1H-indol-5-yl)amino]nicotinonitrile]: 8.40.
As for `Cc1c(Nc2c(C#N)cncc2-c2ccc(OCCNC3CCN(C)CC3)cc2)ccc2[nH]ccc12` [Compound 420, 4-[(4-methyl-1H-indol-5-yl)amino]-5-(4-{2-[(1-methylpiperidin-4-yl)amino]ethoxy}phenyl)nicotinonitrile], the pIC50 under setting [1] was 8.52.
As for `Cc1c(Nc2c(C#N)cncc2-c2ccc(OCCNCC3CCN(C)CC3)cc2)ccc2[nH]ccc12` [Compound 421, 4-[(4-methyl-1H-indol-5-yl)amino]-5-[4-(2-{[(1-methylpiperidin-4-yl)methyl]amino}ethoxy)phenyl]nicotinonitrile], the negative logarithm of the IC50 (pIC50) under setting [1] was 8.52.
Regarding `Cc1c(Nc2c(C#N)cncc2-c2ccc(OCCN3CCC(CO)CC3)cc2)ccc2[nH]ccc12` [Compound 422, 5-(4-{2-[4-(hydroxymethyl)piperidin-1-yl]ethoxy}phenyl)-4-[(4-methyl-1H-indol-5-yl)amino]nicotinonitrile], the pIC50 under setting [1] is 8.10.
As for `Cc1c(Nc2c(C#N)cncc2-c2ccc(OCCN3CCC(N4CCCC4)CC3)cc2)ccc2[nH]ccc12` [Compound 423, 4-[(4-methyl-1H-indol-5-yl)amino]-5-{4-[2-(4-pyrrolidin-1-ylpiperidin-1-yl)ethoxy]phenyl}nicotinonitrile], the pIC50 under setting [1] was 7.96.
For the compound `Cc1c(Nc2c(C#N)cncc2-c2ccc(OCCN3CCC(N4CCOCC4)CC3)cc2)ccc2[nH]ccc12` [Compound 424, 4-[(4-methyl-1H-indol-5-yl)amino]-5-{4-[2-(4-morpholin-4-ylpiperidin-1-yl)ethoxy]phenyl}nicotinonitrile], the negative-log IC50 (pIC50) under setting [1] is 8.40.
The same measure, in the same setting: in the case of `CCN1CCN(CCOc2ccc(-c3cncc(C#N)c3Nc3ccc4[nH]ccc4c3C)cc2)CC1` [Compound 425, 5-{4-[2-(4-ethylpiperazin-1-yl)ethoxy]phenyl}-4-[(4-methyl-1H-indol-5-yl)amino]nicotinonitrile] it was 8.05; in that of `Cc1c(Nc2c(C#N)cncc2-c2ccc(OCCN3CCCN(C)CC3)cc2)ccc2[nH]ccc12` [Compound 426, 5-{4-[2-(4-methyl-1,4-diazepan-1-yl)ethoxy]phenyl}-4-[(4-methyl-1H-indol-5-yl)amino]nicotinonitrile], 7.89; in that of `Cc1c(Nc2c(C#N)cncc2-c2ccc(OCCN3CCN(CCO)CC3)cc2)ccc2[nH]ccc12` [Compound 427, 5-(4-{2-[4-(2-hydroxyethyl)piperazin-1-yl]ethoxy}phenyl)-4-[(4-methyl-1H-indol-5-yl)amino]nicotinonitrile], 7.85.
Still for that read-out and setting: in the case of `Cc1c(Nc2c(C#N)cncc2-c2ccc(OCCN3CCN(CCN(C)C)CC3)cc2)ccc2[nH]ccc12` [Compound 428, 5-[4-(2-{4-[2-(dimethylamino)ethyl]piperazin-1-yl}ethoxy)phenyl]-4-[(4-methyl-1H-indol-5-yl)amino]nicotinonitrile] it was 7.82; in that of `Cc1c(Nc2c(C#N)cncc2-c2ccc(OCCNCCCn3ccnc3)cc2)ccc2[nH]ccc12` [Compound 429, 5-[4-(2-{[3-(1H-imidazol-1-yl)propyl]amino}ethoxy)phenyl]-4-[(4-methyl-1H-indol-5-yl)amino]nicotinonitrile], 8.30.
Same read-out and setting: in the case of `Cc1c(Nc2c(C#N)cncc2-c2ccc(OCCN3CCN(c4ccccn4)CC3)cc2)ccc2[nH]ccc12` [Compound 430, 4-[(4-methyl-1H-indol-5-yl)amino]-5-{4-[2-(4-pyridin-2-ylpiperazin-1-yl)ethoxy]phenyl}nicotinonitrile] it was 7.77.
On to `Cc1c(Nc2c(C#N)cncc2-c2ccc(OCCN3CCN(c4ccncc4)CC3)cc2)ccc2[nH]ccc12` [Compound 431, 4-[(4-methyl-1H-indol-5-yl)amino]-5-{4-[2-(4-pyridin-4-ylpiperazin-1-yl)ethoxy]phenyl}nicotinonitrile], for which the pIC50 under setting [1] was 8.30.
Take `Cc1c(Nc2c(C#N)cncc2-c2ccc(OCCNCc3ccccn3)cc2)ccc2[nH]ccc12` [Compound 432, 4-[(4-methyl-1H-indol-5-yl)amino]-5-(4-{2-[(pyridin-2-ylmethyl)amino]ethoxy}phenyl)nicotinonitrile]: the pIC50 under setting [1] was 8.05.
Consider `Cc1c(Nc2c(C#N)cncc2-c2ccc(OCCNCc3cccnc3)cc2)ccc2[nH]ccc12` [Compound 433, 4-[(4-methyl-1H-indol-5-yl)amino]-5-(4-{2-[(pyridin-3-ylmethyl)amino]ethoxy}phenyl)nicotinonitrile], for which, under setting [1], the negative logarithm of the IC50 (pIC50) is 8.00.
Still for that read-out and setting: in the case of `Cc1c(Nc2c(C#N)cncc2-c2ccc(OCCNCc3ccncc3)cc2)ccc2[nH]ccc12` [Compound 434, 4-[(4-methyl-1H-indol-5-yl)amino]-5-(4-{2-[(pyridin-4-ylmethyl)amino]ethoxy}phenyl)nicotinonitrile] it was 7.85.
On the same count and under the same terms, in the case of `Cc1c(Nc2c(C#N)cncc2-c2ccc(OCCN3CCC(c4ccccc4)CC3)cc2)ccc2[nH]ccc12` [Compound 435, 4-[(4-methyl-1H-indol-5-yl)amino]-5-{4-[2-(4-phenylpiperidin-1-yl)ethoxy]phenyl}nicotinonitrile] it was 7.31; in that of `Cc1c(Nc2c(C#N)cncc2-c2ccc(CN3CCC(N(C)C)CC3)o2)ccc2[nH]ccc12` [Compound 436, 5-(5-{[4-(dimethylamino)piperidin-1-yl]methyl}-2-furyl)-4-[(4-methyl-1H-indol-5-yl)amino]nicotinonitrile], 9.00; in that of `Cc1c(Nc2c(C#N)cncc2-c2ccc(CN3CCN(C(C)C)CC3)o2)ccc2[nH]ccc12` [Compound 437, 5-{5-[(4-isopropylpiperazin-1-yl)methyl]-2-furyl}-4-[(4-methyl-1H-indol-5-yl)amino]nicotinonitrile], 8.70.
In the case of `Cc1c(Nc2c(C#N)cncc2-c2cc3cc(OCCN4CCN(C)CC4)ccc3o2)ccc2[nH]ccc12` [Compound 438, 4-[(4-methyl-1H-indol-5-yl)amino]-5-{5-[2-(4-methylpiperazin-1-yl)ethoxy]-1-benzofuran-2-yl}nicotinonitrile], under setting [1], the negative-log IC50 (pIC50) is 8.40.
On to `COc1ccc(-c2cncc(C#N)c2NCCN2CCN(C)CC2)cc1OC` [Compound 439, 5-(3,4-dimethoxyphenyl)-4-{[2-(4-methylpiperazin-1-yl)ethyl]amino}nicotinonitrile], for which, under setting [1], the pIC50 was 5.23.
On the same count and under the same terms, the same measure for `COc1ccc(-c2cncc(C#N)c2NCCCN2CCN(C)CC2)cc1OC` [Compound 440, 5-(3,4-dimethoxyphenyl)-4-{[3-(4-methylpiperazin-1-yl)propyl]amino}nicotinonitrile]: 4.84.
For the compound `COc1ccc(-c2cncc(C#N)c2NC[C@H]2CC[C@H](CN)CC2)cc1OC` [Compound 441, 4-({[trans-4-(aminomethyl)cyclohexyl]methyl}amino)-5-(3,4-dimethoxyphenyl)nicotinonitrile], the pIC50 under setting [1] is 6.28.
On the same count and under the same terms, in the case of `COc1ccc(-c2cncc(C#N)c2NC[C@H]2CC[C@H](N)CC2)cc1OC` [Compound 442, 4-{[(trans-4-aminocyclohexyl)methyl]amino}-5-(3,4-dimethoxyphenyl)nicotinonitrile] it was 5.75; in that of `COc1ccc(-c2cncc(C#N)c2NCCC2CCNCC2)cc1OC` [Compound 444, 5-(3,4-dimethoxyphenyl)-4-[(2-piperidin-4-ylethyl)amino]nicotinonitrile], 5.61; in that of `COc1ccc(-c2cncc(C#N)c2NCC2CCNCC2)cc1OC` [Compound 445, 5-(3,4-dimethoxyphenyl)-4-[(piperidin-4-ylmethyl)amino]nicotinonitrile], 4.69.
On the same count and under the same terms, the same measure for `COc1ccc(-c2cncc(C#N)c2N[C@H]2CC[C@@H](N)CC2)cc1OC` [Compound 446, 4-[(cis-4-aminocyclohexyl)amino]-5-(3,4-dimethoxyphenyl)nicotinonitrile]: 5.31.
Take `COc1ccc(-c2cncc(C#N)c2NCCC2CCN(C)CC2)cc1OC` [Compound 447, 5-(3,4-dimethoxyphenyl)-4-{[2-(1-methylpiperidin-4-yl)ethyl]amino}nicotinonitrile]: under setting [1], the pIC50 was 5.71.
Take `COc1ccc(-c2cncc(C#N)c2NCC2CCN(C)CC2)cc1OC` [Compound 448, 5-(3,4-dimethoxyphenyl)-4-{[(1-methylpiperidin-4-yl)methyl]amino}nicotinonitrile]: the pIC50 under setting [1] was 4.85.
Still for that read-out and setting: the same measure for `Cc1c(Nc2c(C#N)cncc2-c2ccc(CN3CCN(C)CC3)cc2)ccc2[nH]ccc12` [Compound 449, 4-[(4-methyl-1H-indol-5-yl)amino]-5-{4-[(4-methylpiperazin-1-yl)methyl]phenyl}nicotinonitrile]: 8.30.
The same measure, in the same setting: in the case of `Cc1c(Nc2c(C#N)cncc2-c2ccc(CN3CCCC3)cc2)ccc2[nH]ccc12` [Compound 450, 4-[(4-methyl-1H-indol-5-yl)amino]-5-[4-(pyrrolidin-1-ylmethyl)phenyl]nicotinonitrile] it was 7.80.
For `Cc1c(Nc2c(C#N)cncc2-c2ccc(CN3CCOCC3)cc2)ccc2[nH]ccc12` [Compound 451, 4-[(4-methyl-1H-indol-5-yl)amino]-5-[4-(morpholin-4-ylmethyl)phenyl]nicotinonitrile], the negative logarithm of the IC50 (pIC50) under setting [1] was 8.05.
